According to patent US5834511A, “DL- DI- or tri-hydroxyphenylglycine alkyl esters for the treatment of inflammatory and allergic conditions” (Ciba Specialty Chemicals Corporation, priority 1994, dated 1998):
Read-outs that look alike come from different tables or passages of the source.

What was measured:
5-LOX = target: T1, 5-LOX (Oryctolagus cuniculus, UniProt P12530); experiment: Lipoxygenase activity, oxygraphic (Table 4 column headed 5-LOX; method describes 15-lipoxygenase); type: biochemical, rabbit
T1 construct: 15-lipoxygenase from rabbit reticulocytes; from tissue; host or cells: rabbit reticulocytes
T1 sequence (P12530 2-663): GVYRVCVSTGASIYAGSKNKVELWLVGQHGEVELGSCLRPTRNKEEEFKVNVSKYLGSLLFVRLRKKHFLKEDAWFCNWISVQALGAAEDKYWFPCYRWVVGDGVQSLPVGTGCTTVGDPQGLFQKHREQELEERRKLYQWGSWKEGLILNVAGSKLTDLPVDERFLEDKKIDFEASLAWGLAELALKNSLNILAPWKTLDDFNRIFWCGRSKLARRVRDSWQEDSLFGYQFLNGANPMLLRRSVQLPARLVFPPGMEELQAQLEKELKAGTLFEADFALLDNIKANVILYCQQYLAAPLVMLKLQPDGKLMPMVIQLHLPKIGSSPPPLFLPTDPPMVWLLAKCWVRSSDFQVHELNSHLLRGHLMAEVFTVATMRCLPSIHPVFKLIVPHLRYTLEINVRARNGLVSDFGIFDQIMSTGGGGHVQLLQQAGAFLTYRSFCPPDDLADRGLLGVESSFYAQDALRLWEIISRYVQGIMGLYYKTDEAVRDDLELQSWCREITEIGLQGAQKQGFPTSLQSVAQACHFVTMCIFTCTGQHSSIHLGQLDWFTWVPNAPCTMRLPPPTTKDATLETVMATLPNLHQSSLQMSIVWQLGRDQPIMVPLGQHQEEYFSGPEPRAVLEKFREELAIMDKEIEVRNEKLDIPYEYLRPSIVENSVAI
Method: Prostaglandin H synthase is prepared from the seminal vesicles of sheep (F. S. Van der Ouderaa, M. Buytenhek.: Methods Enzymol. 86, 60-68 (1982)), and 15-lipoxygenase from rabbit reticulocytes (T. Schewe, R. Wiesner, S. M. Rapoport: Methods Enzymol. 71, 430-441 (1981)). Both enzymatic activities are measured oxygraphically at 25° C.
The 15-lipoxygenase activity is measured using 265 μmol/l of potassium linoleate as substrate in 0.1 molar phosphate puffer at pH 7.4 and 0.2% sodium cholate (T. Schewe, H. Kuhn, S. M. Rapoport, in: Prostaglandins and Related Substances--A Practical Approach pp. 229-242, C. Benedetto, R. G. McDonald-Gibson, S. Nigam, T. F. Slater (Eds.); IRL Press, Oxford, Wash. (1987)). The compounds are freshly dissolved in 2-methoxyethanol and preincubated for 5 minutes with the enzyme preparation, and the reaction is started by addition of substrate.

[1] = test system: hydrogen peroxide formation in casein-stimulated peritoneal granulocytes of rats; experiment: Formation of hydrogen peroxide induced by opsonated zymosan in casein-stimulated peritoneal granulocytes; type: cell-based, rat; conditions: 5×10^6 cells/ml, 30 min incubation
PGH Synthase = target: T2, PGH Synthase (Ovis aries, UniProt P05979); experiment: Prostaglandin H synthase activity, oxygraphic; type: biochemical, sheep; conditions: 30 μmol/l arachidonic acid, pH 8.0, 25° C., 5 minutes preincubation
T2 construct: prepared from the seminal vesicles of sheep; from tissue; host or cells: sheep seminal vesicles, microsomal enzyme preparation
T2 sequence (P05979 25-600): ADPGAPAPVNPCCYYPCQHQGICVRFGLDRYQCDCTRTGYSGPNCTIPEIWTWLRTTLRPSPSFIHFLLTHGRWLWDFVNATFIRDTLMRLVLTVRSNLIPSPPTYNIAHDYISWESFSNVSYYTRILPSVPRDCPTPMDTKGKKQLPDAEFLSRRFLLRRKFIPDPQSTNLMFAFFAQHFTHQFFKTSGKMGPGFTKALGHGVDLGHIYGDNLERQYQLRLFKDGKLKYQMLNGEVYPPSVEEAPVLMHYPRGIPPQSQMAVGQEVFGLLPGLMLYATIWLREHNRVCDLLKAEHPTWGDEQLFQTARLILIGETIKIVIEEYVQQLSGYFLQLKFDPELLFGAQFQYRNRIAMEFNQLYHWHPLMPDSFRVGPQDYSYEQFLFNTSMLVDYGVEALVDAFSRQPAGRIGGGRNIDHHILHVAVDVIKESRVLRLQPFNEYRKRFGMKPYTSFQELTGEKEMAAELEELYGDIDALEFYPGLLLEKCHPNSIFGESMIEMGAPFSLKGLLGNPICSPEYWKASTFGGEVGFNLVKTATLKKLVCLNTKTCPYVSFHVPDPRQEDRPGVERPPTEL
Method: Both enzymatic activities are measured oxygraphically at 25° C.

[2] = test system: writhing reactions induced by acetic acid; experiment: Acetic acid-induced writhing syndrome; type: in vivo, mouse (CBA); conditions: i.p., 5×10^-5 mol/kg, 30 minutes before inducement; recorded over 20 minutes
Method: The writhing reactions are induced by i.p. (=intraperitoneal) injection of 0.1 ml of 1% acetic acid/10 g and recorded over a period of 20 minutes after injection.

5-lipoxygenase = target: T3, 5-lipoxygenase (Homo sapiens, UniProt P09917); experiment: Formation of 5-HETE by 5-lipoxygenase of human polymorphonuclear leucozytes; type: cell-based; conditions: 1-^14 C-arachidonic acid (10 μmol/l)
T3 construct: 5-lipoxygenase of human polymorphonuclear leucozytes; endogenous in cells; host or cells: human polymorphonuclear leukocytes
T3 sequence (P09917 1-674): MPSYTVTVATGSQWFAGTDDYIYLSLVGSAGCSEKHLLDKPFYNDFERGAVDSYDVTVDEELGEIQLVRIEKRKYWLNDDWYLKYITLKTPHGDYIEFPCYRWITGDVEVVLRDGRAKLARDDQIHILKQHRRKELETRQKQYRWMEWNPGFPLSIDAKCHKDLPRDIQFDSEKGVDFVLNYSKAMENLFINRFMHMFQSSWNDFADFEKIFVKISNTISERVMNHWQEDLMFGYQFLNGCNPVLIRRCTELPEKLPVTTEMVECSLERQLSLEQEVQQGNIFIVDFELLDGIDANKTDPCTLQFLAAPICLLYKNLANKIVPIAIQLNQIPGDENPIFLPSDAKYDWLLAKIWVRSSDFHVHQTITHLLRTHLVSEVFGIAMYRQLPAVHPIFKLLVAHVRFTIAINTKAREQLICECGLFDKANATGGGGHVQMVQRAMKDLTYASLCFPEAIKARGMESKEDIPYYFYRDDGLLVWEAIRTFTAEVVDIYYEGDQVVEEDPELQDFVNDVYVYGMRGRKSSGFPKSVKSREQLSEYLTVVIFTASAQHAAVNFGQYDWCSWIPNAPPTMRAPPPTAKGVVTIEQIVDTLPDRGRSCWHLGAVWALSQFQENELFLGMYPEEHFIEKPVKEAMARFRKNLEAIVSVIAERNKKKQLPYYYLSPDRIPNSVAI

[3] = test system: ear oedema induced by croton oil; experiment: Croton oil ear oedema, topical application (antioedematous activity); type: in vivo, mouse (AB); conditions: 2×10 μl of a 5% ethanolic solution 1 hour after croton oil, 6 hours after inducing oedema
Method: Antioedamatous activity The assays for determining the antioedamatous activity of the novel compounds of formulae (101) and (102) prepared in Examples 1 and 2 are carried out on male AB mice (18-22 g, 9 animals per group). The ear oedema is induced by applying 2×10 μl of croton oil (1% in acetone) to the ears of the mice. After 1 hour the novel compounds (2×10 μl of a 5% ethanolic solution of each compound) are applied. After a further 5 hours (6 hours after inducing oedema) the animals are sacrificed, and pieces of ear tissue having a diameter of 8 mm are obtained. The oedema weight is determined as the difference between the contralateral ear. The percentage inhibition is calculated from a comparison with the control animals. (Table 2).

carrageenan oedema = experiment: Carrageenan oedema of the rat paw after systemic application; type: in vivo, rat (Wistar); conditions: administered simultaneously with carrageenan, paw diameter 3 hours after inducing the oedema
[4] = Rattus norvegicus, ip, read-out: ED50

Structure (SMILES): CCCCCCCCOC(=O)C(N)c1ccc(O)c(O)c1.Cl (racemic) [compound of formula (101), DL-3,4-dihydroxyphenylglycine octyl ester hydrochloride]
- IC50 (5-LOX): 3.9 µM
- IC50 ([1]; Rattus norvegicus, 0.5 h): 2.3 µM
- IC50 (PGH Synthase): 110 µM
- Inhibition [2]: 80.2%
- IC50 (5-lipoxygenase): 6.9 µM
- Inhibition [3]: 23.9%
- ED50 (carrageenan oedema; [4]): 150 µmol/kg

Structure (SMILES): CCCCCCCCOC(=O)C(N)c1cc(O)c(O)c(O)c1 (racemic) [compound of formula (102)]
- IC50 (5-LOX): 250 µM
- IC50 ([1]; Rattus norvegicus, 0.5 h): 5.3 µM
- IC50 (PGH Synthase): 85 µM
- Inhibition [2]: 80.7%
- IC50 (5-lipoxygenase): 1.3 µM
- Inhibition [3]: 45.7%
- ED50 (carrageenan oedema; [4]): 80 µmol/kg

Structure (SMILES): CC(=O)Oc1ccccc1C(=O)O [acetylsalicylic acid, reference compound]
- IC50 (5-LOX; 265 μmol/l potassium linoleate, pH 7.4, 25° C., 5 minutes preincubation (method of 15-lipoxygenase), read-out: 5-LOX IC50): > 1000 µM
- IC50 [1]: > 100 µM
- Inhibition [2]: 32.3%
- ED50 (carrageenan oedema; i.p.): 15.2 10^-4 mol/kg
